{"source": "paper PMC6628362", "about": "“A New Strategy for Glioblastoma Treatment: In Vitro and In Vivo Preclinical Characterization of Si306, a Pyrazolo[3,4-d]Pyrimidine Dual Src/P-Glycoprotein Inhibitor” (Cancers, 2019)", "key": {"U87 cells": {"system": "U87 cells", "design": "method as in PMID 28650650", "conditions": "single oral treatment, mice orthotopically injected with U87 cells; cited from earlier work"}, "[1]": {"test": "Plasma pharmacokinetics of Si306 in mice", "type": "in vivo, BALB/C mice", "conditions": "for AUC(0-t): read-out: AUC 0→24 h; for MRT inf: read-out: MRT 0→∞", "text": "Naive male BALB/C mice (weight 20 ± 2 g) were ordered from Charles River (Milan, Italy). All animals were pathogen free and approximately 4–6 weeks old when they arrived. The adaption period to the environment was not less than seven days. All the procedures used on animals in this study were approved by Institutional Animal Use and Care Committee at Università Cattolica del S. Cuore, Rome and Università degli Studi di Siena and authorized by the Italian Ministry of Health, according to Legislative Decree 116/92, which implemented the European Directive 86/609/EEC on laboratory animal protection in Italy. Methods for all the conducted experiments were performed in accordance with regulations, standards and guidelines of the Animal Use and Care Committee of Università Cattolica del S. Cuore, Rome and Università degli Studi di Siena.\nSi306 was dissolved in a mixture of Tween80 (10% v/v), benzyl alcohol (1% v/v) and a 10 mM solution of citric acid. The compound was administered intravenously as a single dose of 25 mg/kg in 200 μL of volume. At several time points (0.08, 0.25, 0.5, 1, 2, 4, 8, 24 h), after drug administration, mice were treated i.p. with heparin (5000 U/kg) and sacrificed under CO2. Five animals were used for each time point. Blood, brain, liver and kidneys were collected for the following quantitative analysis. Approximately 500–600 μL of blood was collected from each animal and transferred to a tube containing 10 μL of heparin and mixed briefly.\nFor the oral PK studies, mice received a single dose of 50 mg/kg of Si306 (dissolved in the same vehicle used for i.v. studies) in 400 μL of final volume by gavage. At nine time-points (0.25, 0.5, 1, 1.5, 2, 3, 4, 8, 24 h) after administration, mice were sacrificed under CO2. Blood and organs were collected and analyzed by LC-MS. The pharmacokinetic parameters, including area under concentration-time curve (AUC), maximum plasma concentration (Cmax), half-time (t1/2), apparent volume of distribution (V), plasma clearance (CL) and mean residence time (MRT), were calculated by non-compartmental analysis using PKSolver software (ver. 1.0, Nanjing, China).\nBlood samples were centrifuged at 5000 rpm for 20 min to separate the plasma fraction, which was subsequently collected in a test tube. Acetonitrile (1 mL, with Si34 as internal standard at the concentration of 5 μg/mL) was added to each sample to denature proteins. Samples were centrifuged at 5000 rpm for 20 min, and the supernatant was recovered, dried under vacuum, solubilized again in methanol (100 μL), and analyzed. Brain and the other organs were homogenized using a T10 basic ULTRA-TURRAX® homogenizer (Bioclass, Pistoia, Italy); in order to extract the compound from the tissue, acetonitrile internal standard solution was added, and the homogenate was centrifuged at 5000 rpm for 20 min. The supernatant was recovered, filtered and analyzed by LC-MS. The quantification of each compound was performed by reference to the appropriate calibration curve. Representative LC-MS chromatograms for Si306 and for Si34 are reported in Figure S2 and Figure S3 respectively."}, "T98G": {"system": "T98G", "test": "Cell viability, T98G (Table S1)", "type": "cell-based", "conditions": "Homo sapiens, 72 h", "experimental": "(§1) 1. Cell Growth Inhibition by Dasatinib, Si306 and Pro-Si306\n(§2) GB cell lines BT138, T98G and A172 were treated with Si306 and pro-Si306 at concentrations ranging from 1 to 100 µM, or with DMSO as a control. Cell viability was evaluated 72 h after treatment for T98G and A172 cell lines and after 24 h for BT-138. In table S1 the IC50 values are reported.\n(§3) Table S1. Sensitivity of glioblastoma multiforme (GBM) cells to Si306 and pro-Si306 expressed as IC50 […]\n(§4) Figure S1. Rho 123 accumulation in U87-TxR cells treated with increasing concentrations of TQ (A), Dex-VER (B), Si306 (C) and pro-Si306 (D).\n(§5) (1 picture or pasted object on this page, not shown here)"}, "LN-229": {"system": "LN-229", "test": "MTT cell growth inhibition, LN-229", "type": "cell-based, Human", "conditions": "LN-229, MTT, n = 3"}, "[2]": {"test": "Acute toxicity study in mice (single i.v. dose)", "type": "in vivo, BALB/c mice", "experimental": "Male BALB/c mice (20 ± 2) g, supplied by Harlan Italy S.r.l., San Pietro al Natisone, Udine, Italy, were acclimated at 25 °C and 55% of humidity under natural light/dark conditions for 1 week before the proposed experiments. Animal welfare was routinely checked by veterinarians of the Service for Animal Welfare and all efforts were made to minimize suffering.\nThe study design includes three groups of five mice each. All mice were injected with compound through the tail vein in a single systemic dose (0.05 mL per dose). The test compound was solubilized in PBS/25% DMSO. The first group was treated with dose levels of 50 mg/kg; the second received a high-dose level of 100 mg/kg, whereas the third was inoculated with the only vehicle as the control. All mice were monitored for survival and the presence of any drug-related adverse effect (local signs of inflammation, weight loss, diarrhea, and behavioral alterations) throughout the experimental period. Mice were sacrificed 4 days after treatment, and liver, kidney, and brain tissue specimens were aseptically removed, fixed in 4% formaldehyde solution, and processed for paraffin embedding. Histopathological changes in tissue specimens were evaluated in 10 randomly selected tissue sections from each organ for all the samples. Sections cut at 2 μm were stained with hematoxylin and eosin (H&E) and analyzed by a pathologist with an optical microscope (Leica, Wetzlar, Germany)."}, "BT-138": {"system": "BT-138", "test": "Cell viability, BT-138 (Table S1)", "type": "cell-based", "conditions": "BT-138, 24 h", "experimental": "as §1, §2, §3, §4, §5"}, "[3]": {"conditions": "male, BALB/C, mouse, iv, 25 mg/kg, mice"}, "[4]": {"conditions": "male, BALB/C, mouse, po, 50 mg/kg, mice"}}, "note": "Where two headings read alike, the source gives them in different places.", "data": [{"smiles": "ClC(Cn1ncc2c(Nc3cccc(Br)c3)nc(SCCN3CCOCC3)nc21)c1ccccc1", "note": "(centres unmarked) [Si306]", "values": [{"measurement": "prolongation of survival", "setting": "U87 cells", "result": 30, "unit": "%"}, {"measurement": "Cmax for i.v. treatment, times higher than p.o.", "setting": "[1]; i.v. 25 mg/kg vs p.o. 50 mg/kg", "result": 8.5, "unit": "times"}, {"measurement": "CL z/F", "setting": "[1]; i.v., 25 mg/kg, mice", "result": 18.3, "unit": "mL/min/kg"}, {"measurement": "V z/F", "setting": "[1]; i.v., 25 mg/kg, mice", "result": 8.17, "unit": "L/kg"}, {"measurement": "Tmax", "setting": "[1]; male, BALB/C, mouse, iv, 25 mg/kg, i.v., 25 mg/kg, mice, read-out: Tmax", "result": 0.08, "unit": "h"}, {"measurement": "Tmax", "setting": "[1]; male, BALB/C, mouse, iv, 25 mg/kg, i.v., 25 mg/kg, mice, read-out: time of peak plasma concentration (converted)", "result": 0.0833, "unit": "h"}, {"measurement": "AUC(0-inf)", "setting": "[1]; [3]", "result": 22800, "unit": "ng·h/mL"}, {"measurement": "Cmax", "setting": "[1]; [3]", "result": 25400, "unit": "ng/mL"}, {"measurement": "half-life", "setting": "[1]; [3]", "result": 5.15, "unit": "h"}, {"measurement": "AUC(0-t)", "setting": "[1]; [3]", "result": 22300, "unit": "ng·h/mL"}, {"measurement": "MRT inf", "setting": "[1]; [3]", "result": 3.78, "unit": "h"}, {"measurement": "bioavailability", "setting": "[1]; male, BALB/C, mouse, oral, 50 mg/kg, mice, p.o. 50 mg/kg vs i.v. 25 mg/kg, equation (1)", "result": 33.3, "unit": "%"}, {"measurement": "AUC(0-inf)", "setting": "[1]; [4]", "result": 15200, "unit": "ng·h/mL"}, {"measurement": "Cmax", "setting": "[1]; [4]", "result": 2970, "unit": "ng/mL"}, {"measurement": "half-life", "setting": "[1]; [4]", "result": 5.96, "unit": "h"}, {"measurement": "AUC(0-t)", "setting": "[1]; [4]", "result": 14500, "unit": "ng·h/mL"}, {"measurement": "CL/F", "setting": "[1]; male, BALB/C, mouse, po, 50 mg/kg, mice, read-out: CL z/F (converted)", "result": 54.8, "unit": "mL/min/kg"}, {"measurement": "MRT inf", "setting": "[1]; [4]", "result": 5.7, "unit": "h"}, {"measurement": "Vd/F", "setting": "[1]; male, BALB/C, mouse, po, 50 mg/kg, mice, read-out: V z/F", "result": 28.3, "unit": "L/kg"}, {"measurement": "Tmax", "setting": "[1]; male, BALB/C, mouse, po, 50 mg/kg, p.o., 50 mg/kg, mice, read-out: Tmax", "result": 1.5, "unit": "h"}, {"measurement": "IC50", "setting": "T98G", "result": "0.46 ± 0.02", "unit": "µM"}, {"measurement": "IC50", "setting": "LN-229; Homo sapiens, LN-229, 72 h", "result": 8, "unit": "µM"}, {"measurement": "IC50", "setting": "LN-229; 72 h", "result": "8.01 ± 0.574", "unit": "µM"}, {"measurement": "microscopic alterations in liver, kidney and central nervous system", "setting": "[2]; 50 and 100 mg/kg i.v., 4 days after treatment, H&E", "result": "No microscopic alterations"}, {"measurement": "treatment-related mortality", "setting": "[2]; limit test dose 100 mg/kg, i.v., four days observation", "result": "did not produce treatment-related mortality"}, {"measurement": "LD50 at 4 days", "setting": "[2]; male, BALB/c, mouse, in vivo, iv, single dose, mice", "result": "> 100", "unit": "mg/kg"}, {"measurement": "behavior (apathy, hyperactivity, vomiting, diarrhea, morbidity)", "setting": "[2]; up to 100 mg/kg i.v., four days observation", "result": "no significant changes occurred in the behavior"}, {"measurement": "body weights", "setting": "[2]; up to 100 mg/kg i.v., recorded daily", "result": "no significant changes"}, {"measurement": "IC50", "setting": "BT-138", "result": "72.6 ± 6.21", "unit": "µM"}]}]}
